Among the data in patent US6150359A, “Naphthyridinones for inhibiting protein tyrosine kinase and cell cycle kinase mediated cellular proliferation” (Warner-Lambert Company, priority 2000, dated 2000) are IC50 values, retold here.

For one test, the target named is T1, c-Src (Homo sapiens, UniProt P12931).
T1 construct: made in house; host or cells: baculovirus infected insect cells
The experiment in a line: c-Src kinase assay, 32P incorporation into polyglutamate-tyrosine. The settings on record: 5 μM ATP. The test is classed as biochemical. The essentials:
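Baculovirus-expressed c-Src captured on antibody-linked latex beads, assayed in 40 mM Tris pH 7.5, 5 mM MgCl2 with polyglutamate-tyrosine substrate and 5 μM ATP containing [32P]-ATP. Reaction 10 min at room temperature, TCA-quenched, filtered; incorporated 32P counted by scintillation.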

Test [1] concerns the target T2, FGFr (human FGF-1 (flg) receptor tyrosine kinase) (Homo sapiens, UniProt P11362).
T2 construct: PCR primers are designed to amplify a fragment of DNA that codes for the intracellular tyrosine kinase domain; made in house; host or cells: Sf9 insect cells (baculovirus), cell lysate
Briefly: FGFr tyrosine kinase assay, 32P incorporation into glutamate-tyrosine copolymer. The test is classed as biochemical.

The test system of test [2] is SW-620 cells. Briefly: Human Colon Carcinoma Growth Delay Assay, SW-620. The test is classed as cell-based. The conditions noted are these: 72 h, SW-620, 3 days. The method, then: Human Colon Carcinoma Growth Delay Assay. Human colon carcinoma cells are seeded into 96-well tissue culture plates in a final volume of 180 μL of 10% fetal bovine serum containing growth media and allowed to incubate overnight (37° C., 5% CO2, 95% air). Cells of the SW-620 cell line are seeded at 1.0-1.5×10^4 cells per well. Cells of the HCT-8 and HT-29 cell lines are seeded at 2-4×10^3 cells per well. Serially diluted drug solutions are prepared in growth medium at 10 times concentration; 20 μL of these solutions are added to duplicate wells and incubated with the cells for 3 days in a cell culture incubator. At the end of the incubation period, cells are fixed with 100 μL per well of 10% trichloroacetic acid after removing the drug/culture medium. The plates are washed five times with tap water and stained with 100 μL per well of 0.075% sulfrhodamine B in 1% acetic acid for 10 minutes. The plates are rinsed four times and allowed to air dry. The stain in the wells are solubilized by the addition of 10 mM unbuffered Tris base and the absorbance read using a microtiter plate optical reader. Inhibition of cell growth is calculated from absorbance data of the treated cells compared to untreated control cells.

The test system of the next test is HCT-8 cells. The experiment in a line: Human Colon Carcinoma Clonogenic Assay, HCT-8. The settings on record: HCT-8, 2 days with drug, colonies after approximately 2 weeks. The test is classed as cell-based. The procedure:
(§1) Human Colon Carcinoma Clonozenic Assay. Human colon carcinoma cells are seeded into 6 well plates in volumes of 3 mL and allowed to incubate overnight (37° C., 5% CO2, 95% air). SW-620 cells are seeded at 7×10^5 per well; HCT-8 cells are seeded at 5×10^5 per well; HT-29 cells are seeded at 4×10^5 cells per well. Serially diluted drugs are prepared at 200 times the final concentration, and 15 μL are added to each of duplicate wells. Cells are incubated with drug for 2 days, rinsed once with 1 mL of trypsin+EDTA, and then trypsinized with the same trypsin solution. After trituration and centrifugation at 750×g for 3 minutes, the cells are suspended in serum-free growth medium and counted using an electronic particle counter. An agarose mixture appropriate for the cloning of each cell line is made using 10% fetal bovine serum in growth medium (SW-620-0.35% agarose, HCT-8 and HT-29-0.4% agarose). […] One; milliliter of each of these cell suspensions is added to duplicate wells of 6 well plates previously prepared with 10% serum/growth medium/1% agarose plugs. The cells in these plates are incubated for approximately 2 weeks in the incubator and stained with 1 mL per well of 1 mg/mL iodonitrotetrazolium violet stain. The visible colonies are counted with an electronic optical colony counter and the clonogenicity of treated cells calculated in comparison to untreated control cells.

Test [3] concerns SW-620 cells. The experiment in a line: Human Colon Carcinoma Clonogenic Assay, SW-620. The conditions noted are these: SW-620, 2 days with drug, colonies after approximately 2 weeks. The test is classed as cell-based. The method, then: as §1

T1 sequence (P12931 whole entry, species assumed): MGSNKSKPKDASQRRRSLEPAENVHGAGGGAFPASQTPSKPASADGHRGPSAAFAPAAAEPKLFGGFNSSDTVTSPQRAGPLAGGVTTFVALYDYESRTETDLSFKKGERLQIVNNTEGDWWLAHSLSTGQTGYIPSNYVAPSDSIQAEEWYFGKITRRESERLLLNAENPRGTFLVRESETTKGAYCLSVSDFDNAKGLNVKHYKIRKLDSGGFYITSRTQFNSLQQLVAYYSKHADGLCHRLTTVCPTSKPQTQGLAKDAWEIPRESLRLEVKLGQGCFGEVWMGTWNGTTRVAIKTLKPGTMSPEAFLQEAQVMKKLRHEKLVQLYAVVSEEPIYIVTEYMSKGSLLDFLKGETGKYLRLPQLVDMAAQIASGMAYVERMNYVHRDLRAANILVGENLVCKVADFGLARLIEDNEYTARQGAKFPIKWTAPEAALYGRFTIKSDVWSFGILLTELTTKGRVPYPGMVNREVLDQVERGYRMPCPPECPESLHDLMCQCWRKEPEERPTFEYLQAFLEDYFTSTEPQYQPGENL
T2 sequence (P11362 478-767 limits assumed): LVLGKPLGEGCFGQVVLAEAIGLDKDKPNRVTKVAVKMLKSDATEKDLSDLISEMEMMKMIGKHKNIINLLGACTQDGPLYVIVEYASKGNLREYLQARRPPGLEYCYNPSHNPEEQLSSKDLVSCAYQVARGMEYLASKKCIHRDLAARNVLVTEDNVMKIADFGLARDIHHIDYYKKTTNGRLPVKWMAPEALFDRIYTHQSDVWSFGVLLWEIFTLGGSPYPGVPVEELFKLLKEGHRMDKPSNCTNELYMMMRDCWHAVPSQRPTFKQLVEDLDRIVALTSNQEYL

Consider `CCN(CC)CCCCNc1cc2c(cn1)cc(-c1c(Cl)cccc1Cl)c(=O)n2C` [Example F, 3-(2,6-dichlorophenyl)-7-[4-(diethylamino)butylamino]-1-methyl-1H-[1,6]naphthyridin-2-one], for which the IC50 against c-Src was 0.04 µM; in test [1], 0.07 µM; in the test on SW-620 cells [2], 7.2 µM; in the test on HCT-8 cells, above 5 µM; with SW-620 cells [3], above 5 µM.
For `CN1CCN(CCCNc2cc3c(cn2)cc(-c2c(Cl)cccc2Cl)c(=O)n3C)CC1` [Example H, 3-(2,6-dichlorophenyl)-1-methyl-7-[3-(4-methylpiperazin-1-yl)propylamino]-1H-[1,6]naphthyridin-2-one], the IC50 on c-Src is 0.06 µM; in test [1], 0.05 µM; in the test on SW-620 cells [2], 5.2 µM; in the test with HCT-8 cells it was above 5 µM.
Take `CCN(CC)CCOc1ccc(Nc2cc3c(cn2)cc(-c2c(Cl)cccc2Cl)c(=O)n3C)cc1` [Example P, 3-(2,6-dichlorophenyl)-7-[(4-(2-(diethylamino)ethoxy)phenyl)amino]-1-methyl-1H-[1,6]naphthyridin-2-one]: the figures for the IC50 at c-Src, in the test with SW-620 cells [2] and in the test on HCT-8 cells were 0.08 µM, 6.7 µM and above 5 µM, respectively.
Turning to `CN1CCN(CCOc2ccc(Nc3cc4c(cn3)cc(-c3c(Cl)cccc3Cl)c(=O)n4C)cc2)CC1` [Example S, 3-(2,6-dichlorophenyl)-1-methyl-7-[(4-(2-(4-methylpiperazin-1-yl)ethoxy)phenyl)amino]-1H-[1,6]naphthyridin-2-one], the figures for the IC50 against c-Src, in the test on SW-620 cells [2] and in the test on SW-620 cells [3] were 0.02 µM, 6.8 µM and 2.8 µM, respectively.
